# Values of other authors, collected in patent US20140228218A1, “PARAFFINIC OIL AND CLASS B GIBBERELLIN BIOSYNTHESIS INHIBITOR COMPOSITIONS” (SUNCOR ENERGY INC., priority 2011, published 2014).
# System: the plant being treated
# Conditions: in vivo
compound,measurement,value
"CC(C)(C)[C@@H](O)[C@@H](Cc1ccc(Cl)cc1)n1cncn1 (relative stereo) [paclobutrazol, (±)-(R*,R*)-beta-[(4-chlorophenyl)methyl]-alpha-(1,1-dimethylethyl)-1H-1,2,4-triazole-1-ethanol]",phytotoxicity to the plant being treated (in words),can cause phytoxicity
